Reference: the NIST ThermoML archive (doi:10.1021/je034162x)

Conditions: 101.33 kPa, Liquid, Hot wire method

C=CCCCC [hex-1-ene]
Conditions | thermal conductivity [W/m/K] | thermal diffusivity [m2/s]
259.93 K | 0.1304 | –
260.19 K | 0.1305 | –
260.47 K | 0.1303 | –
261.24 K | – | 9.12e-08
262.13 K | – | 9.15e-08
263.04 K | – | 9.14e-08
275.98 K | 0.1247 | –
276.28 K | 0.1249 | –
276.6 K | 0.1245 | –
277.38 K | – | 8.63e-08
278.3 K | – | 8.69e-08
279.25 K | – | 8.67e-08
295.84 K | 0.1181 | –
296.26 K | 0.1178 | –
296.53 K | 0.1179 | –
297.34 K | – | 8.25e-08
298.59 K | – | 8.22e-08
299.33 K | – | 8.2e-08
301.27 K | 0.1161 | –
301.73 K | 0.116 | –
301.96 K | 0.1158 | –
302.77 K | – | 8.05e-08
304.08 K | – | 8.06e-08
304.81 K | – | 8.04e-08
314.67 K | 0.1119 | –
315.04 K | 0.1115 | –
315.38 K | 0.1112 | –
316.21 K | – | 7.67e-08
317.27 K | – | 7.71e-08
318.31 K | – | 7.68e-08
329.14 K | 0.1071 | –
329.53 K | 0.107 | –
329.89 K | 0.1068 | –
330.76 K | – | 7.42e-08
331.81 K | – | 7.39e-08
332.96 K | – | 7.4e-08

CC(C)c1ccccc1 [isopropylbenzene]
Conditions | thermal conductivity [W/m/K] | thermal diffusivity [m2/s]
261.13 K | 0.1263 | –
261.33 K | 0.1262 | –
261.48 K | 0.1262 | –
261.85 K | – | 8.45e-08
262.36 K | – | 8.45e-08
262.72 K | – | 8.44e-08
275.03 K | 0.1238 | –
275.24 K | 0.1237 | –
275.4 K | 0.1237 | –
275.75 K | – | 8.18e-08
276.27 K | – | 8.21e-08
276.65 K | – | 8.22e-08
294.11 K | 0.1202 | –
294.32 K | 0.12 | –
294.47 K | 0.1199 | –
294.85 K | – | 7.92e-08
295.35 K | – | 7.86e-08
295.72 K | – | 7.86e-08
312.46 K | 0.1164 | –
312.68 K | 0.1163 | –
312.84 K | 0.1162 | –
313.18 K | – | 7.51e-08
313.72 K | – | 7.54e-08
314.09 K | – | 7.53e-08
329.45 K | 0.1128 | –
329.68 K | 0.1127 | –
329.83 K | 0.1126 | –
330.17 K | – | 7.21e-08
330.7 K | – | 7.21e-08
331.08 K | – | 7.21e-08

CC1CCCC1 [methylcyclopentane]
Conditions | thermal conductivity [W/m/K] | thermal diffusivity [m2/s]
258.71 K | 0.1273 | –
258.96 K | 0.1271 | –
259.11 K | 0.127 | –
259.52 K | – | 9.4e-08
260.16 K | – | 9.37e-08
260.57 K | – | 9.34e-08
277 K | 0.1212 | –
277.24 K | 0.1211 | –
277.41 K | 0.121 | –
277.86 K | – | 8.8e-08
278.49 K | – | 8.85e-08
278.91 K | – | 8.82e-08
294.9 K | 0.1155 | –
295.15 K | 0.1154 | –
295.32 K | 0.1153 | –
295.76 K | – | 8.24e-08
296.37 K | – | 8.25e-08
296.8 K | – | 8.24e-08
312.57 K | 0.1101 | –
312.82 K | 0.11 | –
312.99 K | 0.1099 | –
313.44 K | – | 7.77e-08
314.04 K | – | 7.73e-08
314.46 K | – | 7.71e-08
